In ChEMBL document CHEMBL1140116, “Potent s-cis-locked bithiazole correctors of DeltaF508 cystic fibrosis transmembrane conductance regulator cellular processing for cystic fibrosis therapy” (J Med Chem, 2008):
Activity calls are given as the source filed them. The calls are words filed in the database; no cut-off is given here.

Molecular target: Cystic fibrosis transmembrane conductance regulator (Homo sapiens) (UniProt P13569)
Test: Corrector activity at human CFTR deltaF508 mutant expressed in FRT cells assessed as iodide influx at 25 uM
Type: cell-based

Sequence of Cystic fibrosis transmembrane conductance regulator (Homo sapiens) (P13569 whole entry, looked up): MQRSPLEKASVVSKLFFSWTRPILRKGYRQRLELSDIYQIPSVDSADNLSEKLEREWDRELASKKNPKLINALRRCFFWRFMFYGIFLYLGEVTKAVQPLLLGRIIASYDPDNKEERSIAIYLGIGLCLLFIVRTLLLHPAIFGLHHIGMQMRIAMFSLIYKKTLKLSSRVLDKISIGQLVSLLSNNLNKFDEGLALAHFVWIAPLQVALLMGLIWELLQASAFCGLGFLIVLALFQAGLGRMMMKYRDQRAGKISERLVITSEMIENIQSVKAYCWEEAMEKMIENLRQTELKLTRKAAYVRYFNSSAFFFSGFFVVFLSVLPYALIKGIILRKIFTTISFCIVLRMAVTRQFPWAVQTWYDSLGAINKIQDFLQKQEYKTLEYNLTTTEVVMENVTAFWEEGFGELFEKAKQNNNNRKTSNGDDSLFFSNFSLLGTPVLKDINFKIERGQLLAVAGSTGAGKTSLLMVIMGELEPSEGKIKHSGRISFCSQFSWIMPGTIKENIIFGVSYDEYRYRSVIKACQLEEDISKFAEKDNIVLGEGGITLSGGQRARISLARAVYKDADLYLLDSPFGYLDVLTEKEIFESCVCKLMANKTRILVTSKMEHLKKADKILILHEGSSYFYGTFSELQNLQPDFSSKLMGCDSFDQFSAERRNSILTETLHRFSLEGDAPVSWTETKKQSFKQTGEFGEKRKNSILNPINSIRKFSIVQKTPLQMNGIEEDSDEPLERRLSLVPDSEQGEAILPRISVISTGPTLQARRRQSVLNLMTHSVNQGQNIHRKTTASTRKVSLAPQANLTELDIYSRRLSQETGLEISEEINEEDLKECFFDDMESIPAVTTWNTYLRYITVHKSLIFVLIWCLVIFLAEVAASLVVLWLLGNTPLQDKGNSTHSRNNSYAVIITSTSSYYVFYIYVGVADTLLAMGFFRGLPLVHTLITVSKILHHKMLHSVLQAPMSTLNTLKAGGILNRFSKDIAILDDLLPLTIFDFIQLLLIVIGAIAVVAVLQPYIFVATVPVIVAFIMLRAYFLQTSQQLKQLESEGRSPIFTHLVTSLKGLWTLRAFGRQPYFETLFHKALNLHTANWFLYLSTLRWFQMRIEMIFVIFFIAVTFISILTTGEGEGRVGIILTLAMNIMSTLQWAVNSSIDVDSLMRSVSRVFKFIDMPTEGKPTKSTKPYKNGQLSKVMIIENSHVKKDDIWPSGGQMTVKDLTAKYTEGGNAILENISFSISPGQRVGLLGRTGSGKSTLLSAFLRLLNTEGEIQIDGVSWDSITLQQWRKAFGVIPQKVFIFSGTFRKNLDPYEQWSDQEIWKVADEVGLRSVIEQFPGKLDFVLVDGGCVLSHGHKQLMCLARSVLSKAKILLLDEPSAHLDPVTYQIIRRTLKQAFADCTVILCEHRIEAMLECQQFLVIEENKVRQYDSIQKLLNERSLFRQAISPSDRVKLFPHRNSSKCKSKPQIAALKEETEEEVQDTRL

| Compound | Activity |
| --- | --- |
| COc1ccc(Cl)cc1Nc1nc(-c2cccc(NC(=O)C(C)(C)C)c2)cs1 | inactive |
| COc1ccc(Cl)cc1Nc1nc2c(s1)CCCc1nc(NC(=O)C(C)(C)C)sc1-2 | Active |
| COc1ccc(Cl)cc1Nc1nc(C)c(-c2csc(NC(=O)C(C)(C)C)n2)s1 | inactive |

The remaining lines, values ahead:

| Activity | Compound |
| --- | --- |
| inactive | COc1ccc(Cl)cc1Nc1nc(-c2cccc(NC(=O)C(C)(C)C)c2)c(C)s1 |
| Active | COc1ccc(Cl)cc1Nc1nc(-c2sc(NC(=O)C(C)(C)C)nc2C)cs1 |
| Active | COc1ccc(Cl)cc1Nc1nc(-c2cnc(NC(=O)C(C)(C)C)s2)cs1 |
